{"source": "paper PMC5794219", "about": "(SLAS discovery : advancing life sciences R & D, 2017)", "key": {"E. coli HisRS": {"test_system": "E. coli HisRS", "conditions": "cited from earlier work"}, "P. aeruginosa HisRS": {"target": "T1, P. aeruginosa HisRS (Pseudomonas aeruginosa, UniProt Q9HXJ5)", "T1 sequence (Q9HXJ5 1-429)": "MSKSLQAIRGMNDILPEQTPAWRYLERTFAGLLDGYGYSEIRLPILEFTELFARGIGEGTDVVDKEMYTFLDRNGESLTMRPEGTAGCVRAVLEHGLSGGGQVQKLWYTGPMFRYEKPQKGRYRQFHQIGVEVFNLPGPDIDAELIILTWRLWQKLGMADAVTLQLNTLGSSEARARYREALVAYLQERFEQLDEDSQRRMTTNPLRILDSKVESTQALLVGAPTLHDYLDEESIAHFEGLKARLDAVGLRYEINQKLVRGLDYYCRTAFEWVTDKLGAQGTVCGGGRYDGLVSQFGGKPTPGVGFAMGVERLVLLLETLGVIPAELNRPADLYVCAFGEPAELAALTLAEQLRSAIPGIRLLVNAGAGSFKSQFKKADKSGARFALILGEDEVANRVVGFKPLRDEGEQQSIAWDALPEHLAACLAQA", "assay": "ATP:PPi exchange reactions", "assay_type": "biochemical", "conditions": "substrate varied, other substrate constant at 2 mM"}, "[1]": {"substrate": "N[C@@H](Cc1c[nH]cn1)C(=O)O", "assay": "ATP:PPi exchange reactions", "assay_type": "biochemical, Pseudomonas aeruginosa", "conditions": "other: substrate varied, other substrate constant at 2 mM; pH 7.5; 37.0 °C"}, "[2]": {"substrate": "Nc1ncnc2c1ncn2[C@@H]1O[C@H](COP(=O)(O)OP(=O)(O)OP(=O)(O)O)[C@@H](O)[C@H]1O", "assay": "ATP:[32P]PPi exchange at pH 7.5, 37 °C, 0.05 µM HisRS, ATP varied", "assay_type": "biochemical"}}}
{"molecule": "N[C@@H](Cc1c[nH]cn1)C(=O)O", "note": "[histidine]", "values": [{"measurement": "turnover", "setting": "E. coli HisRS; E. coli HisRS, interaction with His, different research groups ref 24, 25", "value": "7 to 142", "unit": "s⁻¹"}]}
{"molecule": "Nc1ncnc2c1ncn2[C@@H]1O[C@H](COP(=O)(O)OP(=O)(O)OP(=O)(O)O)[C@@H](O)[C@H]1O", "note": "[ATP]", "values": [{"measurement": "Km", "setting": "P. aeruginosa HisRS", "value": 298, "unit": "µM"}, {"measurement": "kcat (turnover number)", "setting": "P. aeruginosa HisRS", "value": 16.8, "unit": "s⁻¹"}, {"measurement": "Km", "setting": "E. coli HisRS; E. coli HisRS ref 12", "value": 890, "unit": "µM"}, {"measurement": "kcat", "setting": "E. coli HisRS; E. coli HisRS, interaction with ATP ref 24", "value": 34, "unit": "s⁻¹"}]}
{"molecule": "P. aeruginosa HisRS (Pseudomonas aeruginosa PAO1) (protein) MSKSLQAIRGMNDILPEQTPAWRYLERTFAGLLDGYGYSEIRLPILEFTELFARGIGEGTDVVDKEMYTFLDRNGESLTMRPEGTAGCVRAVLEHGLSGGGQVQKLWYTGPMFRYEKPQKGRYRQFHQIGVEVFNLPGPDIDAELIILTWRLWQKLGMADAVTLQLNTLGSSEARARYREALVAYLQERFEQLDEDSQRRMTTNPLRILDSKVESTQALLVGAPTLHDYLDEESIAHFEGLKARLDAVGLRYEINQKLVRGLDYYCRTAFEWVTDKLGAQGTVCGGGRYDGLVSQFGGKPTPGVGFAMGVERLVLLLETLGVIPAELNRPADLYVCAFGEPAELAALTLAEQLRSAIPGIRLLVNAGAGSFKSQFKKADKSGARFALILGEDEVANRVVGFKPLRDEGEQQSIAWDALPEHLAACLAQA", "values": [{"measurement": "Km", "setting": "[1]", "value": 37.6, "unit": "µM"}, {"measurement": "kcat", "setting": "[1]", "value": 8.32, "unit": "s⁻¹"}, {"measurement": "Km", "setting": "[2]", "value": 298.5, "unit": "µM"}]}
